Assay results reported in US20180087086A1, “CELL EGRESS AND INVASION INHIBITORS AND THEIR USE AS ANTIPARASITICAL AGENTS” (THE JOHNS HOPKINS UNIVERSITY, priority 2015, published 2018).

Assays:
[1] = test system: P. berghei parasites constitutively expressing mCherry; test: live imaging of mCherry expressing sporozoite gliding; format: cell-based; settings: for average gliding velocity: DMSO control 2.58+/−0.05 um/s; for total time spent gliding: 200 frame movies, control 46 frames; for pausing, fraction of active gliding time: control 7%; for waving sporozoites: manual assignment from z-stacks, control 15% waving
Source text: To determine the compound effects on the speed of gliding and type of gliding movement, live imaging of mCherry expressing parasites was used. P. berghei parasites constitutively expressing mCherry were allowed to settle on slides and imaged using an inverted microscope at 1.57 fps. ImageJ and the ToAST plugin were used to track parasites for a minimum of 150 frames in the 200 frame movies. The coordinates obtained via the automated tracking were much more useful than those using manual tracking. The ToAST plugin provides automatic identification of sporozoites from debris by aspect ratio and pixel analysis. The program also measures velocity and determine whether sporozoites are gliding in counterclockwise (CCW) or clockwise (CW) patterns, or whether they are stationary or waving, with large changes in vector angles between images.
Instead, the output position data was reanalyzed using similar algorithms as defined by ToAST. Sporozoites were assigned to one of four states at each time point, CW gliding, CCW gliding, stationary, or waving. To determine the speed of gliding, the average velocity was determined for sections of time in which the sporozoite was gliding continuously for more than 6 frames. Sporozoites would often glide for a number of frames and then stop gliding for a number of frames before continuing movement, resulting in more than one block of frames representing continuous gliding. The average for each sporozoite was a weighted average of the average speed during each block of gliding. The DMSO control parasites traveled in a CCW and CW pattern at an average speed of 2.58+/−0.05 um/s. […] Compound 4 gliding information was collected at a lower concentration compared to compound 18 because it was not possible to obtain a sufficient number of circularly gliding parasites for analysis at the higher concentrations (FIG. 11A).
As previously mentioned, sporozoites would often glide for several frames, then stop or pause, and then continue gliding. Upon initial observation of compound 4 samples, it was observed that parasites tended to glide in a stop-and-go manner, gliding for 4-6 frames and then stopping for 2-3 frames. To determine whether these pauses deviated from those observed in the control, the movies were analyzed to determine the total amount of time spent circularly gliding over the course of the 200 frame movies (FIG. 11C). Additionally, the fraction of time that the sporozoites paused for during active gliding was measured (FIG. 11D). A pause was defined as a cessation of circular gliding for no more than 10 frames. The fraction of paused frames to moving frames was measured for stretches of active gliding. […] Compound 4 increased pausing to 32% of the active gliding time, while compound 18 increased pauses to just 16% (FIG. 11D).
Z-stack images were created using ImageJ using the average intensity in each frame. From these frames, patterns of movements to one of two categories were assigned, circular gliding or waving. Waving sporozoites are defined as having on end attached while the other end moves or waves freely (FIG. 11F), resulting in large angular changes in the direction of the vector that lies along the sporozoite. Both compound 4 and 18 changed the ratio between gliding and waving sporozoites. In the control, nearly 85% of sporozoites are gliding circularly and 15% waving, whereas 72% and 66% are waving in compound 4 and 18 samples, respectively.

sporozoites [2] = test: sporozoite viability, propidium iodide exclusion assay; format: cell-based; settings: 10 min at 18° C. then 15 min at 37° C., DMSO 85%, read-out: sporozoite viability (PI exclusion)
Description: (§1) FIG. 12A-FIG. 12C is a series of bar charts that show results of sporozoite viability assays. […] The total number of sporozoites was determined from phase images and the number of non-viable sporozoites from the count of red fluorescing sporozoites.
To determine if the compounds' mode of action was by causing cell death, viability assays to look at compound effects were performed. In a first test of viability, a propidium iodide exclusion assay was used (FIG. 12A). The total number of sporozoites was determined from in phase imaging and the number of non-viable sporozoites from the count of red fluorescing sporozoites. […] 250 μM of compound 4 reduced viability to 79% while compound 18 indicated a protective effect with 93% viability.

sporozoites [3] = test: sporozoite viability, 2 dye system of ethidium and calcein-AM; format: cell-based; settings: for viability at 62.5 µM: 0.25 h, 15 min at room temperature, DMSO 96%; for sporozoite viability (ethidium/calcein-AM): extended 15 min incubation at 37° C.
Description: as §1
To further investigate viability, a 2 dye system of ethidium and calcein-AM was used to measure both membrane permeability, a marker of death, and enzyme activity, a marker of viability (FIG. 12B). Live cells with intact membranes are impermeable to the ethidium DNA dye but are permeable to the calcein-AM dye, which can interact with active esterases and will fluoresce green. Dying cells allow the ethidium to cross the membrane and interact with DNA, fluorescing red. This two color readout allowed discrimination between live versus dead sporozoites. Sporozoites were incubated at room temperature with two different concentrations of compounds for 15 min and then counted. […] Compound 4 and 18 at 62.5 μM reduced sporozoite viability to 82% and 88%, respectively. At these concentrations, assays could be performed such that the compounds would not kill the parasite. Instead, the compounds merely impaired parasite mobility, indicating an on-target effect of the small molecule on Aldolase-TRAP. By modulating this interaction, despite not killing the parasites at that point, a dramatic reduction in liver cell invasion was observed (FIG. 14A). […] As these dyes are unable to be fixed and sporozoites are not viable for long periods of time, it is possible that there are some viability variances due to difference in time from incubation with the dye until counting.

sporozoites [4] = test: sporozoite viability, LIVE/DEAD fixable violet assay; format: cell-based
Source text: However, the viability decrease is not high enough to account for the levels of non-gliding sporozoites observed in the gliding assays.

[5] = target: TRAP interaction with aldolase (Plasmodium falciparum, UniProt Q7KQL9); test: TRAP-aldolase interaction via SPR; format: binding, P. falciparum; settings: as a function of compound concentration
Description: (§2) FIG. 5A (Top) TRAP and FIG. 5B (Bottom) MTRAP show the interaction with aldolase in the presence of compounds 4 and 18 as a function of compound concentration as measured via SPR.
(§3) The dissociation constant for PfAldolase and PfTRAP, MTRAP and PvTRAP was measured by determining the binding response at various concentrations of aldolase passed over a chip with bound, biotinylated peptides (FIG. 3). Dissociation constants were in the mid-nanomolar range and matched with values previously reported in the literature (Boucher LE and Bosch J, J. Mol Recognit. 2013 Oct. 26(10): 496-500).
(§4) (FIG. 5A) TRAP and (FIG. 5B) MTRAP interaction with aldolase in the presence of compounds 4 and 18 is illustrated as a function of compound concentration as measured via SPR.

[6] = target: MTRAP interaction with aldolase (Plasmodium falciparum, UniProt Q7KQL9); test: MTRAP-aldolase interaction via SPR; format: binding, P. falciparum; settings: as a function of compound concentration
Description: as §2, §3, §4

TRAP interaction with aldolase, sequence (Q7KQL9 whole entry): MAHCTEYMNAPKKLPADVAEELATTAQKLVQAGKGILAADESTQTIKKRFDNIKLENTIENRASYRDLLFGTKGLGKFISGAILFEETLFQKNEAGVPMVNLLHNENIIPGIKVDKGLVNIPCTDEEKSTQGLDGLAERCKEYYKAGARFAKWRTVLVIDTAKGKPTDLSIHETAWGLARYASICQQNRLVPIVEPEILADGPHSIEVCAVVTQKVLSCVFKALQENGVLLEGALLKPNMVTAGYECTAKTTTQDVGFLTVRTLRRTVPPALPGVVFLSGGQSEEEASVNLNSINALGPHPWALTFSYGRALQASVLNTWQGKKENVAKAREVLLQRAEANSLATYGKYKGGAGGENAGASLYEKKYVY
TRAP interaction with aldolase, sequence (P16893 516-559, further chain): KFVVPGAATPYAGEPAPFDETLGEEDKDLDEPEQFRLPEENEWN
MTRAP interaction with aldolase, sequence (Q7KQL9 whole entry): as the sequence (Q7KQL9 whole entry) above

| SMILES | average gliding velocity ([1]; 3.9 μM) | total time spent gliding [1] [frames] | pausing, fraction of active gliding time [1] [%] | waving sporozoites [1] [%] | viability at 250 µM (sporozoites [2]) [%] | viability at 62.5 µM (sporozoites [3]) [%] | sporozoite viability (ethidium/calcein-AM) (sporozoites [3]) | effect on viability in LIVE/DEAD assay (sporozoites [4]) | binding interaction of TRAP with aldolase in presence of compound [5] | binding interaction of MTRAP with aldolase in presence of compound [6] | average gliding velocity ([1]; 62.5 μM) |
| --- | --- | --- | --- | --- | --- | --- | --- | --- | --- | --- | --- |
| Brc1ccc(Nc2nc3ccccc3nc2Nc2ccc(Br)cc2)cc1 [Compound 4, N,N′-bis(4-bromophenyl)-2,3-quinoxalinediamine] | 1.81+/−0.09 um/s | 25 | 32 | 72 | 79 | 82 | 66% | greater decrease in viability | Increased binding interaction | Increased binding interaction | – |
| CCCCn1c(N)c(C(=O)NCc2ccccc2)c2nc3ccccc3nc21 [Compound 18, 2-amino-N-benzyl-1-butyl-1H-pyrrolo[2,3-b]quinoxaline-3-carboxamide] | – | 16 | 16 | 66 | 93 | 88 | did not differ from the control | relatively mild | Increased binding interaction | Increased binding interaction | 1.88+/−0.17 um/s |
